Test results from US20110262395A1, “SENSORY RECEPTORS FOR CHRONIC FATIGUE AND PAIN AND USES THEREOF” (UNIVERSITY OF UTAH RESEARCH FOUNDATION, priority 2008, published 2011).
Entries after “also recorded” stand apart in the source; their conditions may differ.

Experiments:
DRG neurons [1] = test: Calcium imaging of cultured DRG neurons: antagonist effects on responses to increasing metabolites (protons, lactate, ATP); assay type: cell-based, mouse
Excerpt: (§1) Harvesting/culturing cells/loading cells: Thirty-nine three week old (4 wells of DRG neurons plated from each mouse), C57Bl/6 mice were anesthetized with isoflurane, and euthanized by cervical dislocation. Dorsal root ganglia (DRG) from lumbar regions were removed into HBSS, treated with trypsin, washed with MEM (Invitrogen 51200-038) containing 10% FBS (Hyclone), 2.4% glucose, 1% glutamax (Invitrogen 35050-061) and 1% penicillin/streptomycin (Atlanta Biological B2110). DRG were triturated, pre-plated and incubated at 37° C. for one hour to reduce non-neuronal cells. Neurons were gently swirled and centrifuged (110×g, 5 min). Cells were removed, re-suspended and 30 μL plated onto the 4 center wells of 24-well plates coated with poly-L-lysine and laminin. A 0.5 mm thick silicone ring with a 4 mm diameter opening sealed to the surface of each well reduced the plating area in each well. Following 1 hour, wells were filled with 37° C. culture medium with 10 ng/mL GDNF (Glial Derived Neurotrophic Factor) (Preprotech 450-10). Sixteen to 23 hours after plating, cultures were loaded with Fura-2 AM (Molecular Probes F-1221) fluorescent dye for 40-60 minutes, then washed with pH 7.4 oxygenated observation medium containing no additional ATP (145 mM NaCl, 5 mM KCl, 2 mM CaCl2, 1 mM MgCl2, 1 mM Citrate, 10 mM glucose, 10 mM MES, 10 mM HEPES). The final well volume was 500 μL.
(§2) Combinations of metabolites applied to mimic naturally occurring conditions: When applied in an escalating series to mimic increases in metabolites that occur with muscle exercise and ischemic muscle exercise, the metabolite values shown in Table 1 were used. The values associated with pH 7.6 are at or below those normally found at rest in the mouse. The values at 7.4 approximate those found at rest. Generally, the low metabolite values associated with pH higher than 7.0 are likely to be non-noxious, while higher metabolite values at pH 7.0 and lower may be associated with pain. These values should bracket the physiological range of metabolites found in skeletal muscle with the last two values (those associated with 6.4 and 6.2) being higher than the physiological range (Bangsbo et al., 1993; Bangsbo et al., 2001; Li et al., 2003; Li et al., 2005; Reeh and Kress, 2001; Steinhagen et al., 1976).
(§3) JYL-1422, LJO-328, A-317567, and a selected stereo isomer of A-317567 were each dissolved in 5% DMSO/95% water and a few μL of 1M HCl to a concentration of 10 mM, then quick frozen and stored at −20° C. Aliquots of antagonists were thawed and diluted to the appropriate concentrations just prior to use in the experiments. The strong buffers maintained the pH of these antagonists when mixed with metabolites.
(§4) Imaging procedure: All experiments were performed at room temperature (20-25° C.) to allow correspondence with most previous experiments using calcium imaging and patch clamp of DRG neurons. Cells were imaged using the Meta Imaging Series Metafluor program (Universal Imaging Corp). All cells identifiable as neurons based on their round shape, clear, single nucleus, were selected from a phase image of the field. At the end of each experiment, 200 nM capsaicin was applied, followed by a wash, and then applied 50 mM KCl. Capsaicin activation indicated the presence of TRPV1 receptors on neurons, and KCl ensured that recorded objects were active neurons, and established the maximal calcium response in each neuron. For some neurons the administration of capsaicin abolished the potential for responding to KCl, thus either a response to capsaicin or to KCl indicated viability of neurons, and only viable neurons were included in analyses.
For each field an average of 151+10 cells were tracked real-time. […] FIGS. 1 and 2 show traces from these graphs. […]

DRG neurons [2] = test: Calcium imaging of cultured DRG neurons: antagonist effects on responses to capsaicin, ATP or KCl (selectivity control); assay type: cell-based, mouse
Excerpt: as §1, §3, §4
For each field an average of 151+10 cells were tracked real-time. […]

ASIC3 = biological target: T1, ASIC3 (Homo sapiens, UniProt Q9UHC3); conditions: cited from earlier work
T1 sequence (Q9UHC3 1-531): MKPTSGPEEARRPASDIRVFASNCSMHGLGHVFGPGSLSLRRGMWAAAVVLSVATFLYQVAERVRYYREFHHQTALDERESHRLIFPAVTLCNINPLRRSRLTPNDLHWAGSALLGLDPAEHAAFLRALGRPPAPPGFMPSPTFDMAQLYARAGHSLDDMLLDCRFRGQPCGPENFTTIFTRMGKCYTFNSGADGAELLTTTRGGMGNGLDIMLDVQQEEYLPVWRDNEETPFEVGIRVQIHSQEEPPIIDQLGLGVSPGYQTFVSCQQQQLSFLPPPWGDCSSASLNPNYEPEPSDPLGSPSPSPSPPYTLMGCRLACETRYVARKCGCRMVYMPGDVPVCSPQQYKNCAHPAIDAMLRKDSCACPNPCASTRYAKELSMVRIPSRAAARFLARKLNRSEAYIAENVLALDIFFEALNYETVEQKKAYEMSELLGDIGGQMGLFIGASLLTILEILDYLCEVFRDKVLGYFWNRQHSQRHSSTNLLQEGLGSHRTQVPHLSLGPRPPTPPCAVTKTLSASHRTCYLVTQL

ASIC1 = biological target: T2, ASIC1 (Homo sapiens, UniProt P78348); conditions: read-out: IC 50 for ASIC1; cited from earlier work
T2 sequence (P78348 1-528): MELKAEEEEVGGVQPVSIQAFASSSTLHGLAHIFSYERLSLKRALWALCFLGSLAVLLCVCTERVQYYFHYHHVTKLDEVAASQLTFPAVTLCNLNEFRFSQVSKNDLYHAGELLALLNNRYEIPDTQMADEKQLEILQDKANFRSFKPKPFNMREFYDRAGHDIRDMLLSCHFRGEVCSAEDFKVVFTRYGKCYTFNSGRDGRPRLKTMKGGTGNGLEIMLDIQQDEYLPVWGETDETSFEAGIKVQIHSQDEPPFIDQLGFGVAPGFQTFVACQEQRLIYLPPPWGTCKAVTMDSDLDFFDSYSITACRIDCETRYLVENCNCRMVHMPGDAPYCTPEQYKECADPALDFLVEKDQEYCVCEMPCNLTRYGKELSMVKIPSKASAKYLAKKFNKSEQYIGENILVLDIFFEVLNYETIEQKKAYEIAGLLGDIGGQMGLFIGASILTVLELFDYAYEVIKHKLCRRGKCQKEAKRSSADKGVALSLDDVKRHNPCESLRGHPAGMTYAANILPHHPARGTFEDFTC

ASIC2 = biological target: T3, ASIC2 (Homo sapiens, UniProt Q16515); conditions: read-out: IC 50 for ASIC2; cited from earlier work
T3 sequence (Q16515 1-512): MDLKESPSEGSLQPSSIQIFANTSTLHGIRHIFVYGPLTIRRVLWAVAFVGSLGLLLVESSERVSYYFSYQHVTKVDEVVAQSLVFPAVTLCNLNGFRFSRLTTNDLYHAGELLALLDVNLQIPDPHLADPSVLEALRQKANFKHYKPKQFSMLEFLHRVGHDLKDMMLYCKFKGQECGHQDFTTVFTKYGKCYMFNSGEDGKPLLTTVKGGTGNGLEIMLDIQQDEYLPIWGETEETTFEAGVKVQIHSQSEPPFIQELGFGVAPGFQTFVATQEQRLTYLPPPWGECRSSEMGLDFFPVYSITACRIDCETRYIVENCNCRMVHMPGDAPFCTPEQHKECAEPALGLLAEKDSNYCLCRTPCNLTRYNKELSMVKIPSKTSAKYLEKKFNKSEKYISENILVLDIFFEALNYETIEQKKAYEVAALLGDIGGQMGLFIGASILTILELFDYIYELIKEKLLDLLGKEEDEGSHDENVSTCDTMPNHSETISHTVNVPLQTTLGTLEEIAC

DRG neurons [3] = test: Calcium imaging of cultured DRG neurons: percent of neurons responding to applied metabolites or capsaicin; assay type: cell-based, mouse; conditions: for ability to enhance metabolite responses: ATP: 1 μM
Excerpt: as §1
Choice and concentrations of metabolites: Because the afferent receptors in muscle have been reported to be on the outside of blood vessels supplying muscle, values obtained for muscle interstitium from experiments using cat, rat, and human for muscle contraction evoked by mild to moderate to extreme exercise were used.
Protons (pH): Values between 7.6 and 6.2 were used spanning the range found in skeletal and cardiac muscle in mammals from above resting values to those found with injury and disease.
Lactate: 1-50 mM lactate was used, a range of values that spans from rest to ischemia in muscles of humans and rats and mice.
ATP: ATP concentrations in muscle interstitium increase from 300 nM at rest to 5 μM with ischemic muscle contraction (Hellsten et al., 1998; Li et al., 2003; Li et al., 2005). These levels were used in the experiments described below. […] To allow for physiological levels of desensitization of possible P2X receptors, freshly prepared ATP at 300 nM was used for at least 30 seconds before any further increases in ATP combined with other metabolites, to establish resting conditions in DRG neurons in these experiments. […] Also used were pH 6.0 and 4.0 without additional increases in metabolites to confirm that the imaging experiments could replicate recent reports using patch-clamp techniques (Leffler et al., 2006).
as §2
Di-I labeling: In some experiments, neurons were identified as innervating muscle by prior muscle labeling with Di-I. Twelve 7-9 day old mice were anesthetized by cooling. […]

Compound: CC(C)C1c2cc(C3CC3c3ccc4cc(C(=N)N)ccc4c3)ccc2CCN1C (stereo not shown) [A-317567]
- DRG neuron responses to metabolites blocked (DRG neurons [1]; antagonist 100 μM, metabolites increased as high as pH 6.6, lactate 50 mM, ATP 5): ~80%
- responses to metabolites, % of the control level (DRG neurons [1]; antagonist 100 μM, p<0.0001): 23%
- effect on responses to metabolites (DRG neurons [1]; antagonist 200 μM): blocked all responses to metabolites
- effect on responses to capsaicin, ATP or KCl (DRG neurons [2]; any dose, applied for 10 minutes or less): caused no decrements in calcium responses evoked by capsaicin, ATP or KCl; also recorded: did not decrease responses to capsaicin, ATP, or KCl; also recorded: did not block DRG neuron capsaicin responses, KCl responses, or responses to 5 μM ATP
- effect on responses to capsaicin, ATP or KCl (DRG neurons [2]; applied for more than 20 minutes): caused some decrements in these responses
- IC50 (ASIC3; read-out: IC 50 for ASIC3): 9.5 µM
- IC50 (ASIC1): 2 µM
- IC50 (ASIC2): 9.1 µM

Compound: CC(O)C(=O)O (stereo not shown) [lactate]
- percent of DRG neurons activated (DRG neurons [3]; 50 mM, pH 6.6): 9.5%
- percent of DRG neurons activated (DRG neurons [3]; 5-15 mM combined with protons at pH 7.3-6.8): less than 4%
- DRG neuron responses (DRG neurons [3]; alone, 1-50 mM, pH 7.4): caused no increases in DRG neuron responses; also recorded: activated very few mouse DRG neurons
- total percent of DRG neurons activated (DRG neurons [3]; lactate plus protons, all levels of metabolites included): more than 10%

Compound: APETx2
- inhibition of ASIC3 and ASIC3 heteromers (ASIC3): can selectively inhibit ASIC3 and ASIC3 heteromers

Compound: Nc1ncnc2c1ncn2[C@@H]1O[C@H](COP(=O)(O)OP(=O)(O)O)[C@@H](O)[C@H]1O [ADP]
- ability to enhance metabolite responses (DRG neurons [3]): not capable of enhancing metabolite responses

Compound: Nc1ncnc2c1ncn2[C@@H]1O[C@H](COP(=O)(O)OP(=O)(O)OP(=O)(O)O)[C@@H](O)[C@H]1O [ATP]
- percent of DRG neurons responding (DRG neurons [3]; ATP with lactate): 4.7%
- ability to enhance metabolite responses (DRG neurons [3]): capable of enhancing metabolite responses when freshly prepared
- percent of DRG neurons activated (DRG neurons [3]; graded series, going from 2 μM to 5 μM): approximately 16%
- percent of DRG neurons activated (DRG neurons [3]; gradually increased from resting amounts, only at concentrations higher than 2 μM): < 11%
- percent of DRG neurons activated (DRG neurons [3]; increasing graded series from 300 nM, when 2 μM was reached): less than 10%
- percent of DRG neurons responding (DRG neurons [3]; pH 7.0-ATP 1 μM (increasing protons with addition of ATP)): 11.2%

Compound: Cc1nc(N=Nc2ccc(S(=O)(=O)O)cc2S(=O)(=O)O)c(COP(=O)(O)O)c(C=O)c1O [PPADS]
- effect on responses to increasing metabolites (DRG neurons [1]; antagonist 300 μM): eliminated most responses to increasing metabolites
- effect on responses to increasing metabolites (DRG neurons [1]; antagonist 200-300 μM, doses effective at all P2X receptors): eliminated nearly all responses to increasing metabolites
